Broadly, the IC50 is the midpoint of a concentration-inhibition curve. Read a low IC50 as greater potency in that assay.

One series concerns RS4;11-G101V cell line. The experiment in a line: In vitro anti-proliferation assay (ATPlite) in RS4;11 with G101V mutation. The class given is cell-based. Conditions: about 72 hours incubation. As for the experimental part: (§1) Cell antiproliferation was assayed by PerkinElmer ATPlite™ Luminescence Assay System. Briefly, the various test cancer cell lines were plated at a density of about 1×10^4 cells per well in Costar 96-well plates, and were incubated with different concentrations of compounds for about 72 hours in medium supplemented with 5% FBS or 10% normal human serum(NHS). One lyophilized substrate solution vial was then reconstituted by adding 5 mL of substrate buffer solution, and was agitated gently until the solution was homogeneous. About 50 μL of mammalian cell lysis solution was added to 100 μL of cell suspension per well of a microplate, and the plate was shaken for about five minutes in an orbital shaker at ˜700 rpm. This procedure was used to lyse the cells and to stabilize the ATP. Next, 50 μL substrate solution was added to the wells and microplate was shaken for five minutes in an orbital shaker at ˜700 rpm. Finally, the luminescence was measured by a PerkinElmer TopCount® Microplate Scintillation Counter. Such assays, carried out with a range of doses of test compounds, allowed the determination of the cellular anti-antiproliferative IC50 of the compounds of the present invention. The following table lists the IC50 values of certain compounds of the invention.
The following table lists the IC50 values of the in vitro anti-proliferation assay in RS4;11-G101V cell line.
(In ATP-based viability assays light output follows the ATP content of the culture.)

The test system of another series is SUP-T1. The experiment in a line: In vitro anti-proliferation assay (ATPlite) in p53 mutant cell line SUP-T1. The class given is cell-based. Particulars: Cell line SUP-T1, Mutation R273H, about 72 hours incubation. As for the experimental part: as §1
(§2) The following table lists the IC50 values of another in vitro anti-proliferation assay in different p53 mutant cell lines.

A further series relates to KASUMI-1. The series is described as follows: In vitro anti-proliferation assay (ATPlite) in p53 mutant cell line KASUMI-1. The class given is cell-based. Particulars: Cell line KASUMI-1, Mutation R248Q, about 72 hours incubation. The procedure:
as §1, §2

A further series concerns CEM(R248Q). The experiment in a line: In vitro anti-proliferation assay (ATPlite) in p53 mutant cell line CEM(R248Q). The class given is cell-based. Particulars: Mutation R175H, about 72 hours incubation. As for the experimental part:
as §1, §2

For another series, the system named is DB. The series is described as follows: In vitro anti-proliferation assay (ATPlite) in p53 mutant cell line DB. The class given is cell-based. Conditions: Mutation R248Q, about 72 hours incubation. The procedure: as §1, §2
The next series in a line: Mice PK study. The class given is in vivo. Conditions: CD-1 mouse. As for the experimental part: The pharmacokinetics of compounds were evaluated in CD-1 mouse via Intravenous and Oral Administration. The IV dose was administered as a slow bolus in the Jugular vein, and oral doses were administered by gavage. The formulation for IV dosing was 5% DMSO in 20% HPBCD in water, and the PO formulation was 2.5% DMSO, 10% EtOH, 20% Cremphor EL, 67.5% D5W. The PK time point for the IV arm was 5, 15, 30 min, 1, 2, 4, 6, 8, 12, 24 hours post dose, and for PO arm was 15, 30 min, 1, 2, 4, 6, 8, 12, 24 hours post dose. Approximately 0.03 mL blood was collected at each time point. Blood of each sample was transferred into plastic micro centrifuge tubes containing EDTA-K2 and collect plasma within 15 min by centrifugation at 4000 g for 5 minutes in a 4° C. centrifuge. Plasma samples were stored in polypropylene tubes. The samples were stored in a freezer at −75±15° C. prior to analysis. Concentrations of compounds in the plasma samples were analyzed using a LC-MS/MS method. WinNonlin (Phoenix™, version 6.1) or other similar software was used for pharmacokinetic calculations. The following pharmacokinetic parameters were calculated, whenever possible from the plasma concentration versus time data: IV administration: Co, CL, Vd, T1/2, AUCinf, AUClast, MRT, Number of Points for Regression; PO administration: Cmax, Tmax, T1/2, AUCinf, AUClast, F %, Number of Points for Regression. The pharmacokinetic data was described using descriptive statistics such as mean, standard deviation.

In the series with RS4;11-G101V cell line, `COCC1(CO)C(=O)C2CCN1CC2` (centres unmarked) [APR-246, reference compound] gave a half-inhibitory concentration (IC50) of 1.76 µM.
Turning to `COC[C@@]1(CO)C(=O)C2CCN1CC2` [ARP-246-S, (S)-2-(hydroxymethyl)-2-(methoxymethyl)quinuclidin-3-one, reference compound], the half-maximal inhibitory concentration (IC50) is 4.8 µM in the series on SUP-T1 (Homo sapiens), 1 µM in the series with KASUMI-1 (Homo sapiens), 0.495 µM with CEM(R248Q) and 3 µM in the series on DB (Homo sapiens).
As to `COC[C@]1(CO)C(=O)[C@H]2CC[N@]1[C@H](C)C2` [Example 17, (1R,2R,4S,6R)-2-(hydroxymethyl)-2-(methoxymethyl)-6-methylquinuclidin-3-one], the IC50 with RS4;11-G101V cell line came out at 0.73 µM; in the series with SUP-T1, 2.1 µM; with KASUMI-1, 1 µM; with CEM(R248Q), 0.56 µM; in the series on DB it was 3.7 µM. The molecule further displayed a Bioavailabilty in the series “Mice PK study” (Oral, 100 mpk) of 79%. Also, the AUClas in the series “Mice PK study” (Oral, 100 mpk, plasma) is reported as 26,093 h*ng/ml. Moreover, in the series “Mice PK study” (oral), the “bioavailability (in words)” value is “excellent bioavailable”.
In the case of `COC[C@@]1(CO)C(=O)[C@@H]2CC[N@@]1[C@@H](C)C2` [Example 18, (1S,2S,4R,6S)-2-(hydroxymethyl)-2-(methoxymethyl)-6-methylquinuclidin-3-one], the IC50 was 1.8 µM in the series with RS4;11-G101V cell line; 2.6 µM in the series with SUP-T1; 2 µM in the series with KASUMI-1; 0.69 µM in the series with CEM(R248Q); 2.9 µM in the series on DB.
Consider `COC[C@]1(CO)C(=O)[C@@H]2CC[N@@]1[C@@H](C)C2` [Example 27, (1S,2R,4R,6S)-2-(hydroxymethyl)-2-(methoxymethyl)-6-methylquinuclidin-3-one], for which the concentration for half-maximal inhibition (IC50) in the series with SUP-T1 worked out at 3.3 µM; with KASUMI-1 it was 2.6 µM; in the series with CEM(R248Q), 1.6 µM; in the series with DB, 3.3 µM.
On to `COC[C@@]1(CO)C(=O)[C@H]2CC[N@]1[C@H](C)C2` [Example 28, (1R,2S,4S,6R)-2-(hydroxymethyl)-2-(methoxymethyl)-6-methylquinuclidin-3-one], for which the half-maximal inhibitory concentration (IC50) in the series on SUP-T1 was 12.6 µM; with KASUMI-1 it was 7.5 µM; in the series with CEM(R248Q) it was 4.5 µM; in the series on DB, 18.4 µM.
